Assay results reported in patent US20220227737A1, “NOVEL OXALYL PIPERAZINES ACTIVE AGAINST THE HEPATITIS B VIRUS (HBV)” (AiCuris GmbH & Co. KG, priority 2019, published 2022).

Experiments:
[1] = target: T1, C-terminal truncated core protein (HBV core dimer, BODIPY-FL labelled) (UniProt P03146); test: Biochemical capsid assembly assay (fluorescence quenching)
T1 construct: fused on or other part: One added cysteine at position 150, labelled with BODIPY-FL maleimide; The C-terminal arginine-rich domain is absent
Method: Biochemical Capsid Assembly Assay
The screening for assembly effector activity was done based on a fluorescence quenching assay published by Zlotnick et al. (2007). The C-terminal truncated core protein containing 149 amino acids of the N-terminal assembly domain fused to a unique cysteine residue at position 150 and was expressed in E. coli using the pET expression system (Merck Chemicals, Darmstadt). Purification of core dimer protein was performed using a sequence of size exclusion chromatography steps. In brief, the cell pellet from 1 L BL21 (DE3) Rosetta2 culture expressing the coding sequence of core protein cloned NdeI/XhoI into expression plasmid pET21b was treated for 1 h on ice with a native lysis buffer (Qproteome Bacterial Protein Prep Kit; Qiagen, Hilden). After a centrifugation step the supernatant was precipitated during 2 h stirring on ice with 0.23 g/ml of solid ammonium sulfate. Following further centrifugation the resulting pellet was resolved in buffer A (100 mM Tris, pH 7.5; 100 mM NaCl; 2 mM DTT) and was subsequently loaded onto a buffer A equilibrated CaptoCore 700 column (GE HealthCare, Frankfurt). The column flow through containing the assembled HBV capsid was dialyzed against buffer N (50 mM NaHCO3 pH 9.6; 5 mM DTT) before urea was added to a final concentration of 3M to dissociate the capsid into core dimers for 1.5 h on ice. The protein solution was then loaded onto a 1 L Sephacryl 5300 column. After elution with buffer N core dimer containing fractions were identified by SDS-PAGE and subsequently pooled and dialyzed against 50 mM HEPES pH 7.5; 5 mM DTT. To improve the assembly capacity of the purified core dimers a second round of assembly and disassembly starting with the addition of 5 M NaCl and including the size exclusion chromatography steps described above was performed. From the last chromatography step core dimer containing fractions were pooled and stored in aliquots at concentrations between 1.5 to 2.0 mg/ml at −80° C.
Immediately before labelling the core protein was reduced by adding freshly prepared DTT in a final concentration of 20 mM. After 40 min incubation on ice storage buffer and DTT was removed using a Sephadex G-25 column (GE HealthCare, Frankfurt) and 50 mM HEPES, pH 7.5. For labelling 1.6 mg/ml core protein was incubated at 4° C. and darkness overnight with BODIPY-FL maleimide (Invitrogen, Karlsruhe) in a final concentration of 1 mM. After labelling the free dye was removed by an additional desalting step using a Sephadex G-25 column. Labelled core dimers were stored in aliquots at 4° C. In the dimeric state the fluorescence signal of the labelled core protein is high and is quenched during the assembly of the core dimers to high molecular capsid structures. The screening assay was performed in black 384 well microtiter plates in a total assay volume of 10 μl using 50 mM HEPES pH 7.5 and 1.0 to 2.0 μM labelled core protein. Each screening compound was added in 8 different concentrations using a 0.5 log-unit serial dilution starting at a final concentration of 100 μM, 31.6 μM or 10 μM, In any case the DMSO concentration over the entire microtiter plate was 0.5%. The assembly reaction was started by the injection of NaCl to a final concentration of […] which induces the assembly process to approximately 25% of the maximal quenched signal. […] after starting the reaction the fluorescence signal was measured using a Clariostar plate reader (BMG Labtech, Ortenberg) with an excitation of 477 nm and an emission of 525 nm. As 100% and 0% assembly control HEPES buffer containing 2.5 M and 0 M NaCl was used. Experiments were performed thrice in triplicates. EC50 values were calculated by non-linear regression analysis using the Graph Pad Prism 6 software (GraphPad Software, La Jolla, USA).

HBV = HBV replication assay: HBV DNA from the supernatants of HepAD38 cells; format: cell-based; settings: Hepatitis B virus, 144 h, HBV DNA in supernatant at day 6, read-out: Cell Activity
Method: Determination of HBV DNA from the Supernatants of HepAD38 Cells
The anti-HBV activity was analysed in the stable transfected cell line HepAD38, which has been described to secrete high levels of HBV virion particles (Ladner et al., 1997). In brief, HepAD38 cells were cultured at 37° C. at 5% CO2 and 95% humidity in 200 μl maintenance medium, which was Dulbecco's modified Eagle's medium/Nutrient Mixture F-12 (Gibco, Karlsruhe), 10% fetal bovine serum (PAN Biotech Aidenbach) supplemented with 50 μg/ml penicillin/streptomycin (Gibco, Karlsruhe), 2 mM L-glutamine (PAN Biotech, Aidenbach), 400 μg/ml G418 (AppliChem, Darmstadt) and 0.3 μg/ml tetracycline. Cells were subcultured once a week in a 1:5 ratio, but were usually not passaged more than ten times. For the assay 60,000 cells were seeded in maintenance medium without any tetracycline into each well of a 96-well plate and treated with serial half-log dilutions of test compound. To minimize edge effects the outer 36 wells of the plate were not used but were filled with assay medium. On each assay plate six wells for the virus control (untreated HepAD38 cells) and six wells for the cell control (HepAD38 cells treated with 0.3 μg/ml tetracycline) were allocated, respectively. In addition, one plate set with reference inhibitors like BAY 41-4109, entecavir, and lamivudine instead of screening compounds were prepared in each experiment. In general, experiments were performed thrice in triplicates. At day 6 HBV DNA from 100 μl filtrated cell culture supernatant (AcroPrep Advance 96 Filter Plate, […] Supor membran, PALL GmbH, Dreieich) was automatically purified on the MagNa Pure LC instrument using the MagNA Pure 96 DNA and Viral NA Small Volume Kit (Roche Diagnostics, Mannheim) according to the instructions of the manufacturer. EC50 values were calculated from relative copy numbers of HBV DNA In brief, 5 μl of the 100 μl eluate containing HBV DNA were subjected to PCR LC480 Probes Master Kit (Roche) together with 1 μM antisense primer […], 0.5 μM sense primer […], 0.3 μM hybprobes […]-FL and LC640-[…]-PH (TIBMolBiol, Berlin) to a final volume of […]. The PCR was performed on the Light Cycler 480 real time system (Roche Diagnostics, Mannheim) using the following protocol: Pre-incubation for 1 min at 95° C., amplification: 40 cycles×(10 sec at 95° C., 50 sec at 60° C., 1 sec at 70° C.), cooling for 10 sec at 40° C. Viral load was quantitated against known standards using HBV plasmid DNA of pCH-9/3091 (Nassal et al., 1990, Cell 63: 1357-1363) and the LightCycler 480 SW 1.5 software (Roche Diagnostics, Mannheim) and EC50 values were calculated using non-linear regression with GraphPad Prism 6 (GraphPad Software Inc., La Jolla, USA).

[2] = Cell viability assay (AlamarBlue); settings: human, HepAD38 cells

T1 sequence (P03146 whole entry, the tested form may be a part): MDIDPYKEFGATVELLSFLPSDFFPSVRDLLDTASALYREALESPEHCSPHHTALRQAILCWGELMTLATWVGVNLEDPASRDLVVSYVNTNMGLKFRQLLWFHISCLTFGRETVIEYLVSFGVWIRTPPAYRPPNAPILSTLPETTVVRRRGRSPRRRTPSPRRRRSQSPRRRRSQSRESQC

Row | SMILES | IC50 [1] [µM] | EC50 (HBV) [µM] | CC50 at 6 days [2] [µM]
1 | CC(C)(C)NC(=O)C(=O)N1CCN(C(=O)c2cc3ccccc3[nH]2)CC1 [Example 52, N-tert-butyl-2-[4-(1H-indole-2-carbonyl)piperazin-1-yl]-2-oxoacetamide] | < 5 | < 1 | > 100
2 | CCCCNC(=O)C(=O)N1CCN(C(=O)c2cc3c(F)cc(F)cc3[nH]2)CC1 [Example 9, N-butyl-2-(4-(4,6-difluoro-1H-indole-2-carbonyl)piperazin-1-yl)-2-oxoacetamide] | < 5 | < 1 | > 100
3 | O=C(NCC1CCOC1)C(=O)N1CCN(C(=O)c2cc3ccccc3[nH]2)CC1 (stereo not drawn) [Example 4, 2-(4-(1H-indole-2-carbonyl)piperazin-1-yl)-2-oxo-N-((tetrahydrofuran-3-yl)methyl)acetamide] | < 100 | 1 to 10 | > 100
4 | COC1(CNC(=O)C(=O)N2CCN(C(=O)c3cc4ccccc4[nH]3)CC2)CC1 [Example 13, 2-(4-(1H-indole-2-carbonyl)piperazin-1-yl)-N-((1-methoxycyclopropyl)methyl)-2-oxoacetamide] | 5 to 10 | < 1 | > 100
5 | CC1(CNC(=O)C(=O)N2CCN(C(=O)c3cc4ccccc4[nH]3)CC2)CCOC1 (stereo not drawn) [Example 12, 2-[4-(1H-indole-2-carbonyl)piperazin-1-yl]-N-[(3-methyloxolan-3-yl)methyl]-2-oxoacetamide] | < 5 | < 1 | > 100
6 | CCCCNC(=O)C(=O)N1CCCN(C(=O)c2cc3ccccc3[nH]2)CC1 [Example 8, N-butyl-2-[4-(1H-indole-2-carbonyl)-1,4-diazepan-1-yl]-2-oxoacetamide] | < 100 | < 1 | > 100
7 | CCCCNC(=O)C(=O)N1CCN(C(=O)c2cc3ccccc3[nH]2)CC1 [Example 6, N-butyl-2-[4-(1H-indole-2-carbonyl)piperazin-1-yl]-2-oxoacetamide] | < 5 | < 1 | > 100
8 | CCCCNC(=O)C(=O)N1CCN(C(=O)c2cc3cccc(F)c3[nH]2)CC1 [Example 25, N-butyl-2-(4-(7-fluoro-1H-indole-2-carbonyl)piperazin-1-yl)-2-oxoacetamide] | < 5 | < 1 | > 100
9 | CCCCCCNC(=O)C(=O)N1CCN(C(=O)c2cc3ccccc3[nH]2)CC1 [Example 11, 2-(4-(1H-indole-2-carbonyl)piperazin-1-yl)-N-hexyl-2-oxoacetamide] | < 5 | 1 to 10 | > 100
10 | CCCCNC(=O)C(=O)N1CCN(C(=O)c2cc3ccc(F)cc3[nH]2)CC1 [Example 23, N-butyl-2-(4-(6-fluoro-1H-indole-2-carbonyl)piperazin-1-yl)-2-oxoacetamide] | < 5 | < 1 | > 100
11 | COC(C)CNC(=O)C(=O)N1CCN(C(=O)c2cc3c(F)cc(F)cc3[nH]2)CC1 (stereo not drawn) [Example 63, 2-(4-(4,6-difluoro-1H-indole-2-carbonyl)piperazin-1-yl)-N-(2-methoxypropyl)-2-oxoacetamide] | < 5 | < 1 | > 100
12 | C[C@@H](O)CNC(=O)C(=O)N1CCN(C(=O)c2cc3ccccc3[nH]2)CC1 [Example 2, (R)-2-(4-(1H-indole-2-carbonyl)piperazin-1-yl)-N-(2-hydroxypropyl)-2-oxoacetamide] | 5 to 10 | 1 to 10 | > 100
13 | O=C(NCC1(CO)CC1)C(=O)N1CCN(C(=O)c2cc3ccccc3[nH]2)CC1 [Example 31, 2-(4-(1H-indole-2-carbonyl)piperazin-1-yl)-N-((1-(hydroxymethyl)cyclopropyl)methyl)-2-oxoacetamide] | 5 to 10 | < 1 | > 100
14 | CC(C)(CCO)CNC(=O)C(=O)N1CCN(C(=O)c2cc3c(F)cc(F)cc3[nH]2)CC1 [Example 61, 2-(4-(4,6-difluoro-1H-indole-2-carbonyl)piperazin-1-yl)-N-(4-hydroxy-2,2-dimethylbutyl)-2-oxoacetamide] | < 5 | < 1 | > 100
15 | O=C(NCc1ccoc1)C(=O)N1CCN(C(=O)c2cc3ccccc3[nH]2)CC1 [Example 10, 2-(4-(1H-indole-2-carbonyl)piperazin-1-yl)-N-(furan-3-ylmethyl)-2-oxoacetamide] | < 5 | < 1 | > 100
16 | O=C(NCCCCO)C(=O)N1CCN(C(=O)c2cc3ccccc3[nH]2)CC1 [Example 29, 2-(4-(1H-indole-2-carbonyl)piperazin-1-yl)-N-(4-hydroxybutyl)-2-oxoacetamide] | < 5 | 1 to 10 | > 100
17 | O=C(NCC1(O)CCC1)C(=O)N1CCN(C(=O)c2cc3ccccc3[nH]2)CC1 [Example 30, 2-(4-(1H-indole-2-carbonyl)piperazin-1-yl)-N-((1-hydroxycyclobutyl)methyl)-2-oxoacetamide] | < 5 | < 1 | > 100
18 | O=C(NCCO)C(=O)N1CCN(C(=O)c2cc3ccccc3[nH]2)CC1 [Example 3, 2-(4-(1H-indole-2-carbonyl)piperazin-1-yl)-N-(2-hydroxyethyl)-2-oxoacetamide] | < 100 | 1 to 10 | > 100
